The term MIC denotes the smallest concentration in the dilution series that meets the test's criterion for growth inhibition.

In brackets after ≈: the same amount, converted by molar mass. Structures can show the parent of a compound that is named as a salt. Where two headings read alike, the source gives them in different places.

Assay [1] has as its system Staphylococcus aureus ATCC 49951. The assay can be described thus: MIC by broth microdilution (CLSI) against Staphylococcus aureus ATCC 49951. The following applies: Staphylococcus aureus ATCC 49951, in vitro. It counts as cell-based. The protocol:
(§1) The in vitro activity against aerobic bacteria was determined by Broth Microdilution Test according to the Clinical and Laboratory Standards Institute (CLSI, former NCCLS) Document M7-A9 Vol 32, No 2 “Methods for Dilution Antimicrobial Susceptibility Tests for Bacteria that Grow Aerobically; Approved Standard—Ninth Edition (2012)”; and the test against anaerobic bacteria was performed by Agar Dilution Test according to the Clinical and Laboratory Standards Institute (CLSI, former NCCLS), Document, M11-A8, Vol. 32, No. 5: “Methods for Antimicrobial Susceptibility Testing of Anaerobic Bacteria; Approved Standard—Eighth Edition (2012)”. Performance standards and interpretive criteria followed the CLSI Document, M100-S23: “Performance Standards for Antimicrobial Susceptibility Testing; Twenty-Third Informational Supplement” (2013). The in vivo activity was tested by the septicaemia mouse model against Staphylococcus aureus and Escherichia coli.
(§2) The antibacterial activity expressed as minimal inhibitory concentration (MIC) was determined according to the approved standard reference recommendations of CLSI (former NCCLS) as described in the description of the application.
(In broth dilution the organism is exposed to a series of concentrations in liquid medium.)

In assay [2] the test system is Escherichia coli ATCC25922. The assay can be described thus: MIC by broth microdilution (CLSI) against Escherichia coli ATCC 25922. In kind it is cell-based. The following applies: Escherichia coli ATCC25922, in vitro. The protocol: as §1, §2

Take “12-epi-12-desvinyl-14-O-{[1-(2-Amino-acetyl)-piperidin-4-yl-methylsulfanyl]-acetyl}-12-[(4-aminomethyl-phenylamino)-methyl] mutilin trihydrochloride [Example 81]”: the minimal inhibitory concentration (MIC) in assay [1] came out at 0.125 µg/mL; in assay [2], 8 µg/mL.

In the case of `C=C[C@]1(C)C[C@@H](OC(=O)CSC(C)(C)CNC(=O)[C@H](N)C(C)C)[C@]2(C)[C@H](C)CC[C@]3(CCC(=O)[C@H]32)[C@@H](C)[C@@H]1O` [Econor, econor, reference compound], the results for the MIC entry in assay [1] and in assay [2] were “≦0.03 μg/mL” and 32 µg/mL (≈ 56.7 µM), respectively.

As for `C[C@@H]1CC[C@@]23CCC(=O)[C@H]2[C@]1(C)[C@H](OC(=O)CSc1ccc(CC(=O)NCCCN)cc1)C[C@](C)(CNCCCN)[C@@H](O)[C@@H]3C` [Example 1, 12-epi-12-desvinyl-14-O-{{4-[(3-Amino-propylcarbamoyl)-methyl]-phenylsulfanyl}-acetyl}-12-[(3-amino-propylamino)-methyl] mutilin trihydrochloride], the minimal inhibitory concentration (MIC) in assay [1] (ATCC49951, read-out: MIC) is at most 0.03 µg/mL; in assay [2] (read-out: MIC), 0.5 µg/mL.

As to `CC1C(O)C(C)(CNCc2ccc(CN)cc2)CC(OC(=O)CSc2ccc(CC(=O)NCCCN)cc2)C2(C)C(C)CCC13CCC(=O)C32.Cl.Cl.Cl` (stereo not drawn) [Example 9, 12-epi-12-desvinyl-14-O-{{4-[(3-Amino-propylcarbamoyl)-methyl]-phenylsulfanyl}-acetyl}-12-[(4-aminomethyl-benzylamino)-methyl] mutilin trihydrochloride], the minimum inhibitory concentration (MIC) entry was “≦0.03 μg/mL” in assay [1] and 0.5 µg/mL in assay [2].

With `CC1C(O)C(C)(CNCCCCCCNC(=N)N)CC(OC(=O)CSc2ccc(CC(=O)NCCCN)cc2)C2(C)C(C)CCC13CCC(=O)C32.Cl.Cl.Cl` (stereo not drawn) [Example 11, 12-epi-12-desvinyl-14-O-{{4-[(3-Amino-propylcarbamoyl)-methyl]-phenylsulfanyl}-acetyl}-12-[(6-guanidino-hexylamino)-methyl] mutilin trihydrochloride], the figures for the MIC result in assay [1] and in assay [2] were “≦0.03 μg/mL” and 0.25 µg/mL, respectively.

With `C[C@@H]1CC[C@@]23CCC(=O)[C@H]2[C@]1(C)[C@H](OC(=O)CSc1ccc(C(=O)NCc2ccc(CN)cc2)cc1)C[C@](C)(CNCCCCCCN)[C@@H](O)[C@@H]3C` [Example 23, 12-epi-12-desvinyl-14-O-{[4-(4-Aminomethyl-benzylcarbamoyl)-phenylsulfanyl]-acetyl}-12-[(6-amino-hexylamino)-methyl] mutilin trihydrochloride], the minimal inhibitory concentration (MIC) is at most 0.03 µg/mL in assay [1] (ATCC49951, read-out: MIC) and 1 µg/mL in assay [2] (read-out: MIC).

Consider `C[C@@H]1CC[C@@]23CCC(=O)[C@H]2[C@]1(C)[C@H](OC(=O)CSC1CCC(CN)CC1)C[C@](C)(CNCCCCCCN)[C@@H](O)[C@@H]3C` (stereo partly drawn) [Example 47, 12-epi-12-desvinyl-14-O-{[(4-Aminomethyl-cyclohexyl)-sulfanyl]-acetyl}-12-[(6-amino-hexylamino)-methyl] mutilin trihydrochloride], for which the MIC in assay [1] (ATCC49951, read-out: MIC) was at most 0.03 µg/mL; in assay [2] (read-out: MIC), 0.5 µg/mL.

Turning to `C[C@@H]1CC[C@@]23CCC(=O)[C@H]2[C@]1(C)[C@H](OC(=O)CSc1ccc(CCCN)cc1)C[C@](C)(CNCCCCCCN)[C@@H](O)[C@@H]3C` [Example 48, 12-epi-12-desvinyl-14-O-{[4-(3-Amino-propyl)-phenylsulfanyl]-acetyl}-12-[(6-amino-hexylamino)-methyl] mutilin trihydrochloride], the minimum inhibitory concentration (MIC) is at most 0.03 µg/mL in assay [1] (ATCC49951, read-out: MIC) and 0.25 µg/mL in assay [2] (read-out: MIC).

On to `C[C@@H]1CC[C@@]23CCC(=O)[C@H]2[C@]1(C)[C@H](OC(=O)CSc1ccc(CC(=O)NCCCN)cc1)C[C@](C)(CCNCCCN)[C@@H](O)[C@@H]3C` [Example 52, 12-epi-12-desvinyl-14-O-{{4-[(3-Amino-propylcarbamoyl)-methyl]-phenylsulfanyl}-acetyl}-12-[2-(3-amino-propylamino)-ethyl] mutilin trihydrochloride], for which the MIC was at most 0.03 µg/mL in assay [1] (ATCC49951, read-out: MIC) and 0.5 µg/mL in assay [2] (read-out: MIC).

`CC1C(O)C(C)(CNCCCCCCN)CC(OC(=O)CSc2cccc(CO)c2)C2(C)C(C)CCC13CCC(=O)C32.Cl.Cl` (stereo not drawn) [Example 54, 12-epi-12-desvinyl-14-O-[(3-Hydroxymethyl-phenylsulfanyl)-acetyl]-12-[(6-amino-hexylamino)-methyl] mutilin dihydrochloride]: the values for the minimal inhibitory concentration (MIC) in assay [1] and in assay [2] were 0.125 µg/mL and 4 µg/mL, respectively.

For `C[C@@H]1CC[C@@]23CCC(=O)[C@H]2[C@]1(C)[C@H](OC(=O)CS[C@@H]1CC[C@@H](N)C[C@H]1O)C[C@](C)(CNCCCN)[C@@H](O)[C@@H]3C.Cl.Cl.Cl` [Example 62, 12-epi-12-desvinyl-14-O-{[(1R,2R,4R)-4-Amino-2-hydroxy-cyclohexylsulfanyl]-acetyl}-12-[(3-amino-propylamino)-methyl] mutilin trihydrochloride], the MIC in assay [1] came out at 0.25 µg/mL; in assay [2], 4 µg/mL.

As to `CC1C(O)C(C)(CNCc2ccc(CN)cc2)CC(OC(=O)CSCCO)C2(C)C(C)CCC13CCC(=O)C32.Cl.Cl` (stereo not drawn) [Example 64, 12-epi-12-desvinyl-14-O-[(2-Hydroxy-ethylsulfanyl)-acetyl]-12-[(4-aminomethyl-benzylamino)-methyl] mutilin dihydrochloride], the values for the minimal inhibitory concentration (MIC) in assay [1] and in assay [2] were 0.5 µg/mL and 4 µg/mL, respectively.

`CC1C(O)C(C)(CNCc2ccc(CN)cc2)CC(OC(=O)CSCCN)C2(C)C(C)CCC13CCC(=O)C32.Cl.Cl.Cl` (stereo not drawn) [Example 65, 12-epi-12-desvinyl-14-O-[(2-Amino-ethylsulfanyl)-acetyl]-12-[(4-aminomethyl-benzylamino)-methyl] mutilin trihydrochloride]: the results for the MIC in assay [1] and in assay [2] were 0.5 µg/mL and 2 µg/mL, respectively.

On to `C[C@@H]1CC[C@@]23CCC(=O)[C@H]2[C@]1(C)[C@H](OC(=O)CSc1nnc(N)[nH]1)C[C@](C)(CNCCCCCCN)[C@@H](O)[C@@H]3C.Cl.Cl.Cl` [Example 66, 12-epi-12-desvinyl-14-O-{[(5-Amino-4H-1,2,4-triazol-3-yl)-sulfanyl]-acetyl}-12-[(6-amino-hexylamino)-methyl] mutilin trihydrochloride], for which the MIC in assay [1] came to 0.5 µg/mL; in assay [2], 4 µg/mL.

As to `CC1C(O)C(C)(CNCCCCCCN)CC(OC(=O)CSc2ccncc2)C2(C)C(C)CCC13CCC(=O)C32.Cl.Cl.Cl` (stereo not drawn) [Example 68, 12-epi-12-desvinyl-14-O-[(Pyridin-4-ylsulfanyl)-acetyl]-12-[(6-amino-hexylamino)-methyl] mutilin trihydrochloride], the figures for the MIC in assay [1] and in assay [2] were 0.25 µg/mL and 4 µg/mL, respectively.

Consider `C[C@@H]1CC[C@@]23CCC(=O)[C@H]2[C@]1(C)[C@H](OC(=O)CSC1CCN(C(=O)CN)CC1)C[C@](C)(CNCc1ccc(CN)cc1)[C@@H](O)[C@@H]3C` [Example 78, 12-epi-12-desvinyl-14-O-{[1-(2-Amino-acetyl)-piperidin-4-yl-sulfanyl)]-acetyl}-12-[(4-aminomethyl-benzylamino)-methyl] mutilin trihydrochloride], for which the MIC in assay [1] (ATCC49951, read-out: MIC) was found to be 0.5 µg/mL; in assay [2] (read-out: MIC) it was 2 µg/mL.

Turning to `C[C@@H]1CC[C@@]23CCC(=O)[C@H]2[C@]1(C)[C@H](OC(=O)CSC1CCN(C(=O)CN)CC1)C[C@](C)(CNCc1ccc(OCCN)cc1)[C@@H](O)[C@@H]3C` [Example 83, 12-epi-12-desvinyl-14-O-{[1-(2-Amino-acetyl)-piperidin-4-yl-sulfanyl]-acetyl}-12{2-[4-(2-amino-ethoxy)-benzylamino]-methyl} mutilin trihydrochloride], the minimum inhibitory concentration (MIC) in assay [1] (ATCC49951, read-out: MIC) turned out to be 0.25 µg/mL; in assay [2] (read-out: MIC), 1 µg/mL.

Consider `C[C@@H]1CC[C@@]23CCC(=O)[C@H]2[C@]1(C)[C@H](OC(=O)CSc1cccc(CN)c1)C[C@](C)(CNCCCN)[C@@H](O)[C@@H]3C.Cl.Cl.Cl` [Example 86, 12-epi-12-desvinyl-14-O-[(3-Aminomethyl-phenylsulfanyl)-acetyl]-12-[(3-amino-propylamino)-methyl] mutilin trihydrochloride], for which the results for the MIC in assay [1] and in assay [2] were 0.06 µg/mL and 0.5 µg/mL, respectively.

As for `C[C@@H]1CC[C@@]23CCC(=O)[C@H]2[C@]1(C)[C@H](OC(=O)CSc1ccc(CN)cn1)C[C@](C)(CNCc1ccc(CN)cc1)[C@@H](O)[C@@H]3C` [Example 98, 12-epi-12-desvinyl-14-O-{[5-Aminomethyl-pyridin-2-yl-sulfanyl)]-acetyl}-12-[(4-aminomethyl-benzylamino)-methyl] mutilin tetrahydrochloride], the minimal inhibitory concentration (MIC) in assay [1] (ATCC49951, read-out: MIC) stood at 0.125 µg/mL; in assay [2] (read-out: MIC) it was 0.5 µg/mL.

Turning to `C[C@@H]1CC[C@@]23CCC(=O)[C@H]2[C@]1(C)[C@H](OC(=O)CSc1ccc(CN)cn1)C[C@](C)(CNCc1ccc(CN)c(F)c1)[C@@H](O)[C@@H]3C` [Example 99, 12-epi-12-Desvinyl-14-O-{[5-aminomethyl-pyridin-2-yl-sulfanyl)]-acetyl}-12-[(4-aminomethyl-3-fluoro-benzylamino)-methyl] mutilin tetrahydrochloride], the MIC amounted to 0.25 µg/mL in assay [1] (ATCC49951, read-out: MIC) and 0.5 µg/mL in assay [2] (read-out: MIC).

Values taken from patent publication US9701628B2, “12-epi pleuromutilins” (NABRIVA THERAPEUTICS AG, priority 2014, dated 2017).
